In brackets after ≈: the same amount, converted by molar mass.
test system: Botrytis cinerea; assay: Fungicidal activity against Botryotinia fuckeliana inoculated on compound pre-treated one-leaf stage cucumber seedlings assessed as prevention of leaf lesions measured 3 days after inoculation; type: functional

`Oc1c(Cl)cc(Nc2ncc(C(F)(F)F)cc2Cl)cc1Cl` and `FC(F)(F)c1cnc(Nc2cc(Cl)cc(Cl)c2)c(Cl)c1` cannot be ordered by MIC: greater than 500 µg/mL for the first, greater than 500 µg/mL for the second.

`N#CSc1c(C(F)(F)F)cc([N+](=O)[O-])c(Nc2ncc(C(F)(F)F)cc2Cl)c1[N+](=O)[O-]` and `CSc1c(C(F)(F)F)cc([N+](=O)[O-])c(Nc2ncc(C(F)(F)F)cc2Cl)c1[N+](=O)[O-]` cannot be ordered by MIC: greater than 500 µg/mL for the first, greater than 500 µg/mL for the second.

`C[S+]([O-])c1c(C(F)(F)F)cc([N+](=O)[O-])c(Nc2ncc(C(F)(F)F)cc2Cl)c1[N+](=O)[O-]` (stereo unspecified) and `O=[N+]([O-])c1cc(C(F)(F)F)c(F)c([N+](=O)[O-])c1Nc1ncc(C(F)(F)F)cc1Cl` cannot be ordered by MIC: greater than 500 µg/mL for the first, greater than 500 µg/mL for the second.

`CCOc1c(C(F)(F)F)cc([N+](=O)[O-])c(Nc2ncc(C(F)(F)F)cc2Cl)c1[N+](=O)[O-]` and `CCCOc1c(C(F)(F)F)cc([N+](=O)[O-])c(Nc2ncc(C(F)(F)F)cc2Cl)c1[N+](=O)[O-]` cannot be ordered by MIC: greater than 500 µg/mL for the first, greater than 500 µg/mL for the second.

`CCCCOc1c(C(F)(F)F)cc([N+](=O)[O-])c(Nc2ncc(C(F)(F)F)cc2Cl)c1[N+](=O)[O-]` and `O=[N+]([O-])c1cc(C(F)(F)F)c(OCCCl)c([N+](=O)[O-])c1Nc1ncc(C(F)(F)F)cc1Cl` cannot be ordered by MIC: greater than 500 µg/mL for the first, greater than 500 µg/mL for the second.

`CC(C)Oc1c(C(F)(F)F)cc([N+](=O)[O-])c(Nc2ncc(C(F)(F)F)cc2Cl)c1[N+](=O)[O-]` and `CC(C)COc1c(C(F)(F)F)cc([N+](=O)[O-])c(Nc2ncc(C(F)(F)F)cc2Cl)c1[N+](=O)[O-]` cannot be ordered by MIC: greater than 500 µg/mL for the first, greater than 500 µg/mL for the second.

`O=[N+]([O-])c1cc(C(F)(F)F)c(OCC(F)(F)C(F)F)c([N+](=O)[O-])c1Nc1ncc(C(F)(F)F)cc1Cl` and `O=[N+]([O-])c1cc(C(F)(F)F)c(OCC(F)(F)F)c([N+](=O)[O-])c1Nc1ncc(C(F)(F)F)cc1Cl` cannot be ordered by MIC: greater than 500 µg/mL for the first, greater than 500 µg/mL for the second.

`O=[N+]([O-])c1cc(C(F)(F)F)c(Oc2ccccc2C(F)(F)F)c([N+](=O)[O-])c1Nc1ncc(C(F)(F)F)cc1Cl` and `O=[N+]([O-])c1cc(C(F)(F)F)c(Oc2cccc(C(F)(F)F)c2)c([N+](=O)[O-])c1Nc1ncc(C(F)(F)F)cc1Cl` cannot be ordered by MIC: greater than 500 µg/mL for the first, greater than 500 µg/mL for the second.

`O=[N+]([O-])c1cc(C(F)(F)F)c(Oc2ccc(C(F)(F)F)cc2)c([N+](=O)[O-])c1Nc1ncc(C(F)(F)F)cc1Cl` and `O=[N+]([O-])c1cc(C(F)(F)F)c(Oc2ccc(C(F)(F)F)cc2Cl)c([N+](=O)[O-])c1Nc1ncc(C(F)(F)F)cc1Cl` cannot be ordered by MIC: greater than 500 µg/mL for the first, greater than 500 µg/mL for the second.

`FC(F)(F)c1cnc(Nc2cc(Cl)c(Oc3ncc(C(F)(F)F)cc3Cl)c(Cl)c2)c(Cl)c1` and `O=[N+]([O-])c1cc(C(F)(F)F)c(Cl)cc1Nc1ncc(C(F)(F)F)cc1Cl` cannot be ordered by MIC: greater than 500 µg/mL for the first, greater than 500 µg/mL for the second.

`CS(=O)(=O)c1cc([N+](=O)[O-])c(Nc2ncc(C(F)(F)F)cc2Cl)c([N+](=O)[O-])c1Cl` and `CCN(CC)S(=O)(=O)c1cc([N+](=O)[O-])c(Nc2ncc(C(F)(F)F)cc2Cl)c([N+](=O)[O-])c1Cl` cannot be ordered by MIC: greater than 500 µg/mL for the first, greater than 500 µg/mL for the second.

Going from `O=[N+]([O-])c1cc(C(F)(F)F)cc([N+](=O)[O-])c1Nc1ncc(C(F)(F)F)cc1Cl` to `O=[N+]([O-])c1cc(C(F)(F)F)c(Br)c([N+](=O)[O-])c1Nc1ncc(C(F)(F)F)cc1Cl`, the MIC falls from greater than 500 µg/mL to less than 16 µg/mL.

`O=[N+]([O-])c1cc(C(F)(F)F)c(I)c([N+](=O)[O-])c1Nc1ncc(C(F)(F)F)cc1Cl` and `Nc1c(C(F)(F)F)cc([N+](=O)[O-])c(Nc2ncc(C(F)(F)F)cc2Cl)c1[N+](=O)[O-]` cannot be ordered by MIC: greater than 500 µg/mL for the first, greater than 500 µg/mL for the second.

`N#CNc1c(C(F)(F)F)cc([N+](=O)[O-])c(Nc2ncc(C(F)(F)F)cc2Cl)c1[N+](=O)[O-]` and `O=[N+]([O-])c1cc(C(F)(F)F)c(O)c([N+](=O)[O-])c1Nc1ncc(C(F)(F)F)cc1Cl` cannot be ordered by MIC: greater than 500 µg/mL for the first, greater than 500 µg/mL for the second.

Going from `COc1c(C(F)(F)F)cc([N+](=O)[O-])c(Nc2ncc(C(F)(F)F)cc2Cl)c1[N+](=O)[O-]` to `O=[N+]([O-])c1cc(C(F)(F)F)c(Cl)c([N+](=O)[O-])c1Nc1ncc(C(F)(F)F)cc1Cl` [FLUAZINAM], the MIC falls from greater than 500 µg/mL to less than 16 µg/mL.

`Cc1cc([N+](=O)[O-])c(Nc2ncc(C(F)(F)F)cc2Cl)c([N+](=O)[O-])c1Cl` and `N#Cc1cc([N+](=O)[O-])c(Nc2ncc(C(F)(F)F)cc2Cl)c([N+](=O)[O-])c1Cl` cannot be ordered by MIC: greater than 500 µg/mL for the first, greater than 500 µg/mL for the second.

Compared with `Cc1c(Cl)c([N+](=O)[O-])c(Nc2ncc(C(F)(F)F)cc2Cl)c([N+](=O)[O-])c1Cl`, `O=[N+]([O-])c1c(Cl)c(C(F)(F)F)c(Cl)c([N+](=O)[O-])c1Nc1ncc(C(F)(F)F)cc1Cl` is lower in MIC: greater than 500 µg/mL for the first, 250 µg/mL (≈ 500 µM) for the second.

`Nc1cc(C(F)(F)F)c(Cl)c(N)c1Nc1ncc(C(F)(F)F)cc1Cl` and `Nc1c(Cl)c(C(F)(F)F)cc([N+](=O)[O-])c1Nc1ncc(C(F)(F)F)cc1Cl` cannot be ordered by MIC: greater than 500 µg/mL for the first, greater than 500 µg/mL for the second.

`COC(=O)c1cc([N+](=O)[O-])c(Nc2ncc(C(F)(F)F)cc2Cl)c([N+](=O)[O-])c1Cl` and `COC(=O)c1cnc(Nc2c([N+](=O)[O-])cc(C(F)(F)F)c(Cl)c2[N+](=O)[O-])c(Cl)c1` cannot be ordered by MIC: greater than 500 µg/mL for the first, greater than 500 µg/mL for the second.

`O=[N+]([O-])c1c(Cl)cc(Nc2ncc(C(F)(F)F)cc2Cl)c([N+](=O)[O-])c1Cl` and `O=[N+]([O-])c1c(Cl)cc(Cl)c([N+](=O)[O-])c1Nc1ncc(C(F)(F)F)cc1Cl` cannot be ordered by MIC: greater than 500 µg/mL for the first, greater than 500 µg/mL for the second.

`O=[N+]([O-])c1cc(C(F)(F)F)c(Nc2ncc(C(F)(F)F)cc2Cl)c([N+](=O)[O-])c1Cl` and `O=[N+]([O-])c1cc(C(F)(F)F)c(Cl)c([N+](=O)[O-])c1Nc1ncc(C(F)(F)F)cc1Br` cannot be ordered by MIC: less than 16 µg/mL for the first, less than 16 µg/mL for the second.

`CCCSP(=O)(OCC)Oc1c(Cl)cc(Nc2ncc(C(F)(F)F)cc2Cl)cc1Cl` (stereo unspecified) and `CCOP(=O)(Oc1c(Cl)cc(Nc2ncc(C(F)(F)F)cc2Cl)cc1Cl)SC(C)CC` (stereo unspecified) cannot be ordered by MIC: greater than 500 µg/mL for the first, greater than 500 µg/mL for the second.

`O=[N+]([O-])c1cc(C(F)(F)F)c(Cl)c([N+](=O)[O-])c1Nc1ncc(Cl)cc1Br` and `O=[N+]([O-])c1cc(C(F)(F)F)c(Cl)c([N+](=O)[O-])c1Nc1ncc(Br)cc1Br` cannot be ordered by MIC: greater than 500 µg/mL for the first, greater than 500 µg/mL for the second.

Going from `O=[N+]([O-])c1cc(C(F)(F)F)c(Cl)c([N+](=O)[O-])c1Nc1ncccc1C(F)(F)F` to `O=[N+]([O-])c1cc(C(F)(F)F)c(Cl)c([N+](=O)[O-])c1Nc1ncc(Cl)cc1C(F)(F)F`, the MIC falls from greater than 500 µg/mL to 16 µg/mL (≈ 34.4 µM).

Going from `O=[N+]([O-])c1cc(C(F)(F)F)c(Cl)c([N+](=O)[O-])c1Nc1ncc(Br)cc1C(F)(F)F` to `O=[N+]([O-])c1cc(C(F)(F)F)c(Cl)c([N+](=O)[O-])c1Nc1ncc(C(F)(F)F)cc1C(F)(F)F`, the MIC falls from 63 µg/mL (≈ 124 µM) to less than 16 µg/mL.

`Fc1c(Cl)cc(Nc2ncc(C(F)(F)F)cc2Cl)c(F)c1Cl` and `N#Cc1c(Cl)c(Cl)c(Cl)c(C#N)c1Nc1ncc(C(F)(F)F)cc1Cl` cannot be ordered by MIC: greater than 500 µg/mL for the first, greater than 500 µg/mL for the second.

First: O=[N+]([O-])c1cc(C(F)(F)F)c(Cl)c([N+](=O)[O-])c1Nc1ccc(C(F)(F)F)cn1
Second: O=[N+]([O-])c1cc(C(F)(F)F)c(Cl)c([N+](=O)[O-])c1Nc1cc(C(F)(F)F)c(Cl)cn1
The MIC of the first is higher: greater than 500 µg/mL for the first, 16 µg/mL (≈ 34.4 µM) for the second.

`O=[N+]([O-])c1cc(C(F)(F)F)c(Cl)c([N+](=O)[O-])c1Nc1nc(C(F)(F)F)c(Cl)cc1Cl` and `O=[N+]([O-])c1cc(C(F)(F)F)c(Cl)c([N+](=O)[O-])c1Nc1nc(Cl)c(C(F)(F)F)cc1Cl` cannot be ordered by MIC: less than 16 µg/mL for the first, less than 16 µg/mL for the second.

`O=[N+]([O-])c1cc(C(F)(F)F)c(Cl)c([N+](=O)[O-])c1Nc1ncc(Cl)cc1Cl` and `O=[N+]([O-])c1cc(C(F)(F)F)c(Cl)c([N+](=O)[O-])c1Nc1ncc(Br)cc1Cl` cannot be ordered by MIC: greater than 500 µg/mL for the first, greater than 500 µg/mL for the second.

First: O=[N+]([O-])c1cc(C(F)(F)F)c(Cl)c([N+](=O)[O-])c1Nc1nc(F)c(C(F)(F)F)cc1Cl
Second: CNc1nc(Nc2c([N+](=O)[O-])cc(C(F)(F)F)c(Cl)c2[N+](=O)[O-])c(Cl)cc1C(F)(F)F
The MIC of the first is lower: less than 16 µg/mL for the first, greater than 500 µg/mL for the second.

`CN(C)c1nc(Nc2c([N+](=O)[O-])cc(C(F)(F)F)c(Cl)c2[N+](=O)[O-])c(Cl)cc1C(F)(F)F` and `Cc1c(Cl)cnc(Nc2c([N+](=O)[O-])cc(C(F)(F)F)c(Cl)c2[N+](=O)[O-])c1Cl` cannot be ordered by MIC: greater than 500 µg/mL for the first, greater than 500 µg/mL for the second.

First: N#Cc1cnc(Nc2c([N+](=O)[O-])cc(C(F)(F)F)c(Cl)c2[N+](=O)[O-])c(Cl)c1
Second: NC(=O)c1cnc(Nc2c([N+](=O)[O-])cc(C(F)(F)F)c(Cl)c2[N+](=O)[O-])c(Cl)c1
The MIC of the first is lower: 63 µg/mL (≈ 149 µM) for the first, greater than 500 µg/mL for the second.

`CCOC(=O)c1cnc(Nc2c([N+](=O)[O-])cc(C(F)(F)F)c(Cl)c2[N+](=O)[O-])c(Cl)c1` and `O=C(O)c1cnc(Nc2c([N+](=O)[O-])cc(C(F)(F)F)c(Cl)c2[N+](=O)[O-])c(Cl)c1` cannot be ordered by MIC: greater than 500 µg/mL for the first, greater than 500 µg/mL for the second.

— ChEMBL document CHEMBL3044862, “Quantitative Structure-Activity Relationships of Fluazinam and Related Fungicidal N-Phenylpyridinamines” (1995)
